Laboratory results taken from PubChem BioAssay (NCI).
Where “and” joins values, the source holds several entries; their conditions need not be identical. Equal entries are not always repeated.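 1) Cells in 96-well plates. 2) Compound, 48 h, 5 concentrations. 3) Linear interpolation between surrounding doses. 4) Unreached endpoint = highest concentration. At the GI50, growth is halved. The concentration for full growth arrest is given as TGI.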

How the values were obtained:
Assay in all cases: growth of human tumour cells (NCI), 48 h
DLD-1 colon = test system: DLD-1 colon
HCT-15 colon = test system: HCT-15 colon
OVCAR-3 ovarian = test system: OVCAR-3 ovarian
ACHN renal = test system: ACHN renal
786-0 renal = test system: 786-0 renal
MOLT-4 leukemia = test system: MOLT-4 leukemia
DMS 114 small cell lung = test system: DMS 114 small cell lung
SN12C renal = test system: SN12C renal
MALME-3M melanoma = test system: MALME-3M melanoma
BT-549 breast = test system: BT-549 breast

Row | SMILES | TGI (DLD-1 colon) | TGI (HCT-15 colon) [µM] | TGI (OVCAR-3 ovarian) | TGI (ACHN renal) [µM] | TGI (786-0 renal) [µM] | TGI (MOLT-4 leukemia) [µM] | TGI (DMS 114 small cell lung) | TGI (SN12C renal) | TGI (MALME-3M melanoma) | TGI (BT-549 breast) [µM] | GI50 (DLD-1 colon) [µM] | GI50 (MOLT-4 leukemia) [µM] | GI50 (DMS 114 small cell lung) [µM] | GI50 (SN12C renal) [µM] | GI50 (MALME-3M melanoma) [µM] | GI50 (HCT-15 colon) [µM] | GI50 (OVCAR-3 ovarian) [µM] | GI50 (ACHN renal) [µM] | GI50 (786-0 renal) [µM]
1 | COCCOCOC(C)(C)[C@H](CCOC(C)=O)O[Si](c1ccccc1)(c1ccccc1)C(C)(C)C | > 100 µM | > 100 | 53.6 µM | 51.1 | 58.9 | 19.1 | 55.4 µM | 29.5 µM | 55.3 µM |  |  |  |  |  |  |  |  |  | 
2 | O=C(CCc1nc(=S)[nH][nH]1)Nc1cccc(C(F)(F)F)c1 | > 100 µM | > 100 | > 100 µM | > 100 | > 100 | > 100 | > 100 µM | > 100 µM | > 100 µM |  |  |  |  |  |  |  |  |  | 
3 | CCCCc1c2c(nc3c1CCc1cc4cc5c(nc4nc1-3)-c1nc3c(c(CCCC)c1CC5)CCC/C3=C\c1ccccc1)/C(=C/c1ccccc1)CCC2 | > 100 µM | > 100 | > 100 µM | > 100 | > 100 | > 100 | > 100 µM | > 100 µM | > 100 µM |  |  |  |  |  |  |  |  |  | 
4 | CC(=O)NNc1nc(C)c(C(=O)/C=C/c2ccc(/C=C/C(=O)c3sc(NNC(C)=O)nc3C)cc2)s1 | > 100 µM | > 100 | > 100 µM | > 100 | > 100 | > 100 | > 100 µM | > 100 µM | > 100 µM |  |  |  |  |  |  |  |  |  | 
5 | C#C[C@H]1CCCCCC1O (some centres not stated) | > 100 µM | > 100 | > 100 µM | > 100 | > 100 | > 100 | > 100 µM | > 100 µM | > 100 µM |  |  |  |  |  |  |  |  |  | 
6 | CN1CCc2c1nc(-c1cccnc1)c1c2N(C)CC1 | > 100 µM | > 100 | > 100 µM | > 100 | > 100 | > 100 | > 100 µM | > 100 µM | > 100 µM |  |  |  |  |  |  |  |  |  | 
7 | O=C(N/C(=C\c1cc(Cl)ccc1Cl)c1nc2ccc(Cl)cc2[nH]1)c1ccccc1 | 26.7 µM | 31 | 35.1 µM | 78.1 | 71.9 | 37.2 | 29.8 µM | 34 µM | 35.8 µM |  |  |  |  |  |  |  |  |  | 
8 | Cn1nnc2c(C(N)=O)ncn2c1=O | > 100 µM | > 100 | > 100 µM | > 100 | > 100 | > 100 | > 100 µM | > 100 µM | > 100 µM | > 100 |  |  |  |  |  |  |  |  | 
9 | Nc1ncnc2c1nnn2C1C=C(CO)C(O)C1O (configuration not stated) | > 92.6 µM | > 100 | > 100 µM | > 100 | > 100 | > 100 | > 86.2 µM | > 82.7 µM | > 100 µM |  |  |  |  |  |  |  |  |  | 
10 | COC1(C)C(=O)N2C1N(C(=O)OCc1ccccc1)CC2(C)C (configuration not stated) | > 100 µM | > 100 | > 100 µM | > 100 | > 100 | > 100 | > 100 µM | > 100 µM | > 100 µM |  |  |  |  |  |  |  |  |  | 
11 | COc1cccc2c1[C@H]1CO[C@H]3C4C[C@H](C(=O)O)C([C@@H](C2)N13)N4C (some centres not stated) | 7.81 µM and 17.4 µM | 6.12 | 2.99 µM and 3.94 µM |  | 4.67 |  | 4.66 µM and 0.803 µM | 8.32 µM and > 35.8 µM | 4.8 µM and 1.6 µM | 0.339 | 0.452 | 0.45 | 0.187 | 0.884 | 0.696 |  |  |  | 
12 | COC(=O)/C(C#N)=C1\CCc2ccccc21 | > 100 µM | > 100 | > 100 µM | > 100 | > 100 | > 100 | > 100 µM | > 100 µM | > 100 µM |  |  |  |  |  |  |  |  |  | 
13 | Nc1ccc(C(=O)NN2C(=O)C(Cl)C2c2cccc(O)c2)cc1 (configuration not stated) | 28.4 µM | 25.3 | 29.9 µM | 37.9 | 29.5 | 41.1 | 19.9 µM | 32.3 µM | 36.7 µM |  |  |  |  |  |  |  |  |  | 
14 | COc1cc(/C=C\c2ccncc2)cc(OC)c1OC | > 100 µM | > 100 | > 100 µM | > 100 | > 100 | > 100 | > 100 µM | > 100 µM | > 100 µM |  |  |  |  |  |  |  |  |  | 
15 | O=NN(CCCl)C(=O)NC1CCC(=O)NC1=O (configuration not stated) | 1050 µM | 846 | > 1160 µM | > 1250 | 377 | 329 | 814 µM |  | 481 µM | 593 |  |  |  |  |  |  |  |  | 
16 | CCC[CH2][Sn]([CH2]CCC)([O]C(=O)/C=C/c1ccccc1F)[O]C(=O)/C=C/c1ccccc1F | 1.5 µM | 1.95 | 2.31 µM | 2.05 | 1.17 | 1.71 | 1.46 µM | 2.29 µM | 1.6 µM |  | 0.393 | 0.267 | 0.445 | 1.03 | 0.385 | 0.74 | 1.07 | 0.797 | 0.384
17 | COC/N=C(/N)NC#N | > 100 µM | 31 | > 100 µM | > 100 | > 100 | > 100 | 37.6 µM | > 100 µM | > 100 µM |  |  |  |  |  |  |  |  |  | 
18 | Nc1ccc(C(=O)N/C(=C\c2cccc([N+](=O)[O-])c2)c2nc3ccc(Cl)cc3[nH]2)cc1 | > 100 µM | > 100 | > 100 µM | > 100 | > 100 | > 100 | > 100 µM | > 100 µM | > 100 µM |  |  |  |  |  |  |  |  |  | 
19 | COc1ccc(Cc2nc3ccccc3s2)cc1OC | 31.7 µM | 60.7 | 31 µM | 31 | 31.9 | 63.9 | 29.9 µM | 30.8 µM | 32.6 µM |  |  |  |  |  |  |  |  |  | 
20 | Cc1nc2c(sc(=S)n2-c2ccccc2)c2nc3ccccc3n12 | > 100 µM | > 100 | > 100 µM | > 100 | > 100 | > 100 | > 100 µM | > 100 µM | > 100 µM |  |  |  |  |  |  |  |  |  | 
21 | CC(=O)[CH-]C(=O)Nc1ccccc1.CC(=O)[CH-]C(=O)Nc1ccccc1.CC[O-].CC[O-].[Ti+4] | > 100 µM | > 100 | > 100 µM | > 100 | > 100 | > 100 | > 100 µM | > 100 µM | > 100 µM |  | > 100 | > 100 | > 100 | > 100 | > 100 | > 100 | > 100 | > 100 | > 100
